Assay results from ChEMBL document CHEMBL1240316, “An oxidation-sensing mechanism is used by the global regulator MgrA in Staphylococcus aureus” (2006).
Calls of active or inactive are those of the source.

Tests used:
Type in all cases: functional, organism-based
Staphylococcus aureus [1] = assay: Antimicrobial activity against Staphylococcus aureus assessed as visible growth at 0.75 ug/ml after 24 hrs in presence of 20 uM paraquat
Staphylococcus aureus [2] = assay: Antimicrobial activity against Staphylococcus aureus expressing mgrA C12S mutant gene assessed as visible growth at 0.25 ug/ml after 24 hrs
Staphylococcus aureus [3] = assay: Antimicrobial activity against Staphylococcus aureus expressing mgrA C12S mutant gene harboring Pyj335-His-mgrA C12S assessed as visible growth at 0.20 ug/ml after 24 hrs
Staphylococcus aureus [4] = assay: Antimicrobial activity against Staphylococcus aureus expressing mgrA C12S mutant gene harboring plasmid Pyj335 assessed as visible growth at 0.20 ug/ml after 24 hrs in presence of 25 uM paraquat
Staphylococcus aureus [5] = assay: Antimicrobial activity against Staphylococcus aureus expressing mgrA C12S mutant gene harboring Pyj335-His-mgrAC12S assessed as visible growth at 0.20 ug/ml after 24 hrs in presence of 25 uM paraquat
Staphylococcus aureus [6] = assay: Antimicrobial activity against Staphylococcus aureus expressing mgrA C12S mutant gene harboring plasmid Pyj335 assessed as visible growth at 0.35 ug/ml after 24 hrs
Staphylococcus aureus [7] = assay: Antimicrobial activity against Staphylococcus aureus expressing mgrA C12S mutant gene harboring Pyj335-His-mgrA assessed as visible growth at 0.35 ug/ml after 24 hrs
Staphylococcus aureus [8] = assay: Antimicrobial activity against Staphylococcus aureus expressing mgrA C12S mutant gene harboring Pyj335-His-mgrA assessed as visible growth at 0.35 ug/ml after 24 hrs in presence of 20 uM paraquat
Staphylococcus aureus [9] = assay: Antimicrobial activity against Staphylococcus aureus assessed as visible growth at 0.6 ug/ml after 24 hrs
Staphylococcus aureus [10] = assay: Antimicrobial activity against Staphylococcus aureus assessed as visible growth at 1 ug/ml after 24 hrs
Staphylococcus aureus [11] = assay: Antimicrobial activity against Staphylococcus aureus assessed as visible growth at 1.4 ug/ml after 24 hrs in presence of 20 uM paraquat
Staphylococcus aureus [12] = assay: Antimicrobial activity against Staphylococcus aureus expressing mgrA C12S mutant gene assessed as visible growth at 0.6 ug/ml after 24 hrs in presence of 20 uM paraquat
Staphylococcus aureus [13] = assay: Antimicrobial activity against Staphylococcus aureus expressing mgrA C12S mutant gene assessed as visible growth at 1 ug/ml after 24 hrs
Staphylococcus aureus [14] = assay: Antimicrobial activity against Staphylococcus aureus expressing mgrA C12S mutant gene harboring plasmid Pyj335-His-mgrA assessed as visible growth at 1.1 ug/ml after 24 hrs
Staphylococcus aureus [15] = assay: Antimicrobial activity against Staphylococcus aureus expressing mgrAC12S mutant gene harboring plasmid Pyj335 assessed as visible growth at 1.1 ug/ml after 24 hrs in presence of 100 uM hydrogen peroxide
Staphylococcus aureus [16] = assay: Antimicrobial activity against Staphylococcus aureus expressing mgrA C12S mutant gene assessed as visible growth at 1.1 ug/ml after 24 hrs in presence of 25 uM paraquat
Staphylococcus aureus [17] = assay: Antimicrobial activity against Staphylococcus aureus expressing mgrA C12S mutant gene assessed as visible growth at 1.8 ug/ml after 24 hrs
Staphylococcus aureus [18] = assay: Antimicrobial activity against Staphylococcus aureus expressing mgrA C12S mutant gene assessed as visible growth at 2.2 ug/ml after 24 hrs
Staphylococcus aureus [19] = assay: Antimicrobial activity against Staphylococcus aureus expressing mgrA C12S mutant gene assessed as visible growth at 2.2 ug/ml after 24 hrs in presence of 20 uM paraquat
Staphylococcus aureus [20] = assay: Antimicrobial activity against Staphylococcus aureus expressing mgrA C12S mutant gene harboring plasmid Pyj335 assessed as visible growth at 0.6 ug/ml after 24 hrs
Staphylococcus aureus [21] = assay: Antimicrobial activity against Staphylococcus aureus expressing mgrA C12S mutant gene harboring plasmid Pyj335 assessed as visible growth at 2.2 ug/ml after 24 hrs in presence of 20 uM paraquat

Measured: Activity

O=C(O)c1cn(C2CC2)c2cc(N3CCNCC3)c(F)cc2c1=O [CIPROFLOXACIN]
inactive: Staphylococcus aureus [2] | Staphylococcus aureus [4] | Staphylococcus aureus [6] | Staphylococcus aureus [8]
active: Staphylococcus aureus [1] | Staphylococcus aureus [3] | Staphylococcus aureus [5] | Staphylococcus aureus [7]

CN[C@H](CC(C)C)C(=O)N[C@H]1C(=O)N[C@@H](CC(N)=O)C(=O)N[C@H]2C(=O)N[C@H]3C(=O)N[C@H](C(=O)N[C@H](C(=O)O)c4cc(O)cc(O)c4-c4cc3ccc4O)[C@H](O)c3ccc(c(Cl)c3)Oc3cc2cc(c3O[C@@H]2O[C@H](CO)[C@@H](O)[C@H](O)[C@H]2O[C@H]2C[C@](C)(N)[C@H](O)[C@H](C)O2)Oc2ccc(cc2Cl)[C@H]1O [VANCOMYCIN]
active: Staphylococcus aureus [14]
not listed: Staphylococcus aureus [1] | Staphylococcus aureus [2] | Staphylococcus aureus [3] | Staphylococcus aureus [4] | Staphylococcus aureus [5] | Staphylococcus aureus [6] | Staphylococcus aureus [7] | Staphylococcus aureus [8]
inactive: all other assays above
